Results reported in patent US9925240B2, “Methods of treating and preventing cancer drug resistance” (Genentech, Inc., priority 2013, dated 2018).

Columns and labels:
HCC4006-ER cells = assay: Cell viability assay (CellTiter-Glo) in erlotinib-resistant HCC4006-ER cells; format: cell-based; details: for Ability to overcome resistance to erlotinib (cell viability, FIG. 3 and FIG. 5): 72 h, in combination with erlotinib
Protocol: 10^3 cells were plated in each well of 384-well plate. 24 hours after plating, added indicated concentration drug to each well. 72 hours after dosing, added CellTiter-Glo Reagent (CellTiter Glo Luminescent Cell Viability Assay, Promega) to each well, incubate the plate at room temperature for 10 minutes, record luminescence by EnVision 2101 Multilabel Reader (PerkinElmer).
Drug-sensitive cells (HCC4006 and HCC827) were treated with 2 uM erlotinib for 2 months. Fresh media containing 2 uM erlotinib were replaced every 3 to 4 days. Viable cells were collected as erlotinib-resistant cells.

HCC4006 cells = assay: Clonogenic assay (crystal violet) in HCC4006 cells; format: cell-based; details: erlotinib 1 μM plus PD173074 0.5 μM, continuous treatment, stained at 6 weeks
Protocol: 10^5 cells were plated in 10 cm^2 plate. 24 hours after plating, media was removed and replaced with media containing indicated drugs. Fresh media was replaced every 3 to 4 days until cells reached confluence (4 weeks) or 6 weeks to stop culture. Media was removed, cells were washed with PBS, then stained with 0.5% crystal violet for 20 minutes at room temperature. Dye was removed, cell monolayers were washed with water, dry the plate and take a picture as record.

Structure (SMILES) | Ability to overcome resistance to erlotinib (cell viability, FIG. 3 and FIG. 5) (HCC4006-ER cells; HCC4006-ER cells) | Sensitivity of cells to erlotinib (cell viability, annexin V, FIG. 1A-C) (HCC4006-ER cells; HCC4006-ER vs parental HCC4006, 72 h) | Screen of small molecule inhibitors in the presence or absence of erlotinib (growth inhibition, FIG. 8) (HCC4006-ER cells; HCC4006-ER cells, with or without erlotinib) | Development of resistance to erlotinib (FIG. 6) (HCC4006 cells)
Nc1nc(Nc2ccc3c(c2)CCC(N2CCCC2)CC3)nn1-c1cc2c(nn1)-c1ccccc1CCC2 (centres unmarked) [R428] | cannot overcome resistance to erlotinib | – | – | –
C#Cc1cccc(Nc2ncnc3cc(OCCOC)c(OCCOC)cc23)c1 [erlotinib, N-(3-ethynylphenyl)-6,7-bis(2-methoxyethoxy)-4-quinazolinamine] | – | resistant | – | –
CCN(CC)CCCCNc1ncc2cc(-c3cc(OC)cc(OC)c3)c(NC(=O)NC(C)(C)C)nc2n1 [PD173074, N-[2-[[4-(diethylamino)butyl]amino]-6-(3,5-dimethoxyphenyl)pyrido[2,3-d]pyrimidin-7-yl]-N′-(1,1-dimethylethyl)-urea] | overcame resistance to erlotinib | – | could reverse resistance to erlotinib | can suppress the development of resistance to erlotinib
